According to PubChem BioAssay (NCI):
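Cells were grown in 96-well plates and exposed to each compound for 48 hours at five concentrations; endpoints were interpolated linearly between bracketing concentrations, or set to the highest concentration if not reached. TGI: total growth inhibition.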

Columns and labels:
Assay in all cases: NCI tumour cell line growth inhibition, 48 h
SF-539 CNS = test system: SF-539 CNS
SN12C renal = test system: SN12C renal
LOX IMVI melanoma = test system: LOX IMVI melanoma
SNB-78 CNS = test system: SNB-78 CNS
ACHN renal = test system: ACHN renal
HL-60(TB) leukemia = test system: HL-60(TB) leukemia
SK-MEL-28 melanoma = test system: SK-MEL-28 melanoma
786-0 renal = test system: 786-0 renal
CCRF-CEM leukemia = test system: CCRF-CEM leukemia
HCT-15 colon = test system: HCT-15 colon
M19-MEL melanoma = test system: M19-MEL melanoma
NCI-H522 lung = test system: NCI-H522 lung
RXF-631 renal = test system: RXF-631 renal
SNB-75 CNS = test system: SNB-75 CNS
CAKI-1 renal = test system: CAKI-1 renal
MOLT-4 leukemia = test system: MOLT-4 leukemia
OVCAR-8 ovarian = test system: OVCAR-8 ovarian
EKVX NSCLC = test system: EKVX NSCLC
HOP-62 NSCLC = test system: HOP-62 NSCLC
SK-OV-3 ovarian = test system: SK-OV-3 ovarian
DMS 273 small cell lung = test system: DMS 273 small cell lung
RPMI-8226 leukemia = test system: RPMI-8226 leukemia
KM12 colon = test system: KM12 colon
HCT-116 colon = test system: HCT-116 colon
SW-620 colon = test system: SW-620 colon
OVCAR-5 ovarian = test system: OVCAR-5 ovarian
SNB-19 CNS = test system: SNB-19 CNS
XF 498 CNS = test system: XF 498 CNS
KM20L2 colon = test system: KM20L2 colon
HOP-92 NSCLC = test system: HOP-92 NSCLC
A549 NSCLC = test system: A549 NSCLC
DLD-1 colon = test system: DLD-1 colon
NCI-H460 lung = test system: NCI-H460 lung
MALME-3M melanoma = test system: MALME-3M melanoma
HCC-2998 colon = test system: HCC-2998 colon
HOP-18 NSCLC = test system: HOP-18 NSCLC
RXF 393 renal = test system: RXF 393 renal
SF-295 CNS = test system: SF-295 CNS
OVCAR-3 ovarian = test system: OVCAR-3 ovarian
OVCAR-4 ovarian = test system: OVCAR-4 ovarian
UO-31 renal = test system: UO-31 renal
A498 renal = test system: A498 renal
TK-10 renal = test system: TK-10 renal
K-562 leukemia = test system: K-562 leukemia
SF-268 CNS = test system: SF-268 CNS
NCI-H23 lung = test system: NCI-H23 lung
HT29 colon = test system: HT29 colon
SK-MEL-2 melanoma = test system: SK-MEL-2 melanoma
SK-MEL-5 melanoma = test system: SK-MEL-5 melanoma
U251 CNS = test system: U251 CNS
DMS 114 small cell lung = test system: DMS 114 small cell lung
M14 melanoma = test system: M14 melanoma
IGROV1 ovarian = test system: IGROV1 ovarian
UACC-62 melanoma = test system: UACC-62 melanoma
UACC-257 melanoma = test system: UACC-257 melanoma
LXFL 529 NSCLC = test system: LXFL 529 NSCLC
COLO 205 colon = test system: COLO 205 colon
NCI-H226 lung = test system: NCI-H226 lung
SR leukemia = test system: SR leukemia

## Cc1ccc(S(=O)(=O)c2ccccn2)cc1
SF-539 CNS
  TGI: > 100 µM
SN12C renal
  TGI: > 100 µM
LOX IMVI melanoma
  TGI: > 100 µM
SNB-78 CNS
  TGI: > 100 µM
ACHN renal
  TGI: > 100 µM
HL-60(TB) leukemia
  TGI: > 100 µM
SK-MEL-28 melanoma
  TGI: > 100 µM
786-0 renal
  TGI: > 100 µM
CCRF-CEM leukemia
  TGI: > 100 µM
HCT-15 colon
  TGI: > 100 µM
M19-MEL melanoma
  TGI: > 100 µM
NCI-H522 lung
  TGI: > 100 µM
RXF-631 renal
  TGI: > 100 µM
SNB-75 CNS
  TGI: > 100 µM
CAKI-1 renal
  TGI: > 100 µM
MOLT-4 leukemia
  TGI: > 100 µM
OVCAR-8 ovarian
  TGI: > 100 µM
EKVX NSCLC
  TGI: > 100 µM
HOP-62 NSCLC
  TGI: > 100 µM
SK-OV-3 ovarian
  TGI: > 100 µM
DMS 273 small cell lung
  TGI: > 100 µM
RPMI-8226 leukemia
  TGI: > 100 µM
KM12 colon
  TGI: > 100 µM
HCT-116 colon
  TGI: > 100 µM
SW-620 colon
  TGI: > 100 µM
OVCAR-5 ovarian
  TGI: 97.2 µM
SNB-19 CNS
  TGI: > 100 µM
XF 498 CNS
  TGI: > 100 µM
KM20L2 colon
  TGI: > 100 µM
HOP-92 NSCLC
  TGI: > 100 µM
A549 NSCLC
  TGI: > 100 µM
DLD-1 colon
  TGI: > 100 µM
NCI-H460 lung
  TGI: > 100 µM
MALME-3M melanoma
  TGI: > 100 µM
HCC-2998 colon
  TGI: > 100 µM
HOP-18 NSCLC
  TGI: > 100 µM
RXF 393 renal
  TGI: > 100 µM
SF-295 CNS
  TGI: > 100 µM
OVCAR-3 ovarian
  TGI: > 100 µM
OVCAR-4 ovarian
  TGI: > 100 µM
UO-31 renal
  TGI: > 100 µM
A498 renal
  TGI: > 100 µM
TK-10 renal
  TGI: > 100 µM
K-562 leukemia
  TGI: > 100 µM
SF-268 CNS
  TGI: > 100 µM
NCI-H23 lung
  TGI: > 100 µM
HT29 colon
  TGI: > 100 µM
SK-MEL-2 melanoma
  TGI: > 100 µM
SK-MEL-5 melanoma
  TGI: > 100 µM
U251 CNS
  TGI: > 100 µM
DMS 114 small cell lung
  TGI: > 100 µM
M14 melanoma
  TGI: > 100 µM
IGROV1 ovarian
  TGI: > 100 µM
UACC-62 melanoma
  TGI: > 100 µM
UACC-257 melanoma
  TGI: > 100 µM
LXFL 529 NSCLC
  TGI: > 100 µM
COLO 205 colon
  TGI: > 100 µM
NCI-H226 lung
  TGI: > 100 µM

## CC/C(=C(\c1ccccc1)c1ccc(OCC[N+](C)(C)C)cc1)c1ccccc1
SF-539 CNS
  TGI: 40.6 µM
SN12C renal
  TGI: 25.7 µM
LOX IMVI melanoma
  TGI: 27.7 µM
SNB-78 CNS
  TGI: 34.3 µM
ACHN renal
  TGI: 34.6 µM
HL-60(TB) leukemia
  TGI: 6.13 µM
SK-MEL-28 melanoma
  TGI: 22.2 µM
786-0 renal
  TGI: 27.9 µM
CCRF-CEM leukemia
  TGI: 26.1 µM
HCT-15 colon
  TGI: 34.1 µM
M19-MEL melanoma
  TGI: 26.2 µM
NCI-H522 lung
  TGI: 18.7 µM
RXF-631 renal
  TGI: 41 µM
SNB-75 CNS
  TGI: 23.9 µM
CAKI-1 renal
  TGI: 32.2 µM
MOLT-4 leukemia
  TGI: 36.4 µM
OVCAR-8 ovarian
  TGI: 37.9 µM
EKVX NSCLC
  TGI: 33 µM
HOP-62 NSCLC
  TGI: 56.5 µM
SK-OV-3 ovarian
  TGI: 34.5 µM
DMS 273 small cell lung
  TGI: 19.9 µM
RPMI-8226 leukemia
  TGI: 28.8 µM
KM12 colon
  TGI: 29.8 µM
HCT-116 colon
  TGI: 31.7 µM
SW-620 colon
  TGI: 30 µM
SNB-19 CNS
  TGI: 37.1 µM
KM20L2 colon
  TGI: 31.1 µM
A549 NSCLC
  TGI: 35.3 µM
DLD-1 colon
  TGI: 37.9 µM
NCI-H460 lung
  TGI: 37.4 µM
MALME-3M melanoma
  TGI: 28.6 µM
HCC-2998 colon
  TGI: 34.2 µM
HOP-18 NSCLC
  TGI: 26.2 µM
RXF 393 renal
  TGI: 36.9 µM
SF-295 CNS
  TGI: 33.8 µM
OVCAR-3 ovarian
  TGI: 20.3 µM
OVCAR-4 ovarian
  TGI: 30.9 µM
UO-31 renal
  TGI: 38.7 µM
A498 renal
  TGI: 40.6 µM
K-562 leukemia
  TGI: 19.9 µM
SF-268 CNS
  TGI: 32.4 µM
HT29 colon
  TGI: 29.6 µM
SK-MEL-2 melanoma
  TGI: 30.2 µM
SK-MEL-5 melanoma
  TGI: 16.4 µM
U251 CNS
  TGI: 29.2 µM
DMS 114 small cell lung
  TGI: 21.7 µM
M14 melanoma
  TGI: 30.1 µM
IGROV1 ovarian
  TGI: 27.8 µM
UACC-62 melanoma
  TGI: 26.8 µM
UACC-257 melanoma
  TGI: 24.4 µM
LXFL 529 NSCLC
  TGI: 24.6 µM
COLO 205 colon
  TGI: 20.4 µM
NCI-H226 lung
  TGI: 26.7 µM

## Nc1n[nH]c(=O)c2c1c(Br)cn2C1OC(CO)C(O)C1O (centres undefined)
SF-539 CNS
  TGI: 25.8 µM
SN12C renal
  TGI: 43.5 µM
LOX IMVI melanoma
  TGI: 15.3 µM
SNB-78 CNS
  TGI: > 80.5 µM
ACHN renal
  TGI: > 100 µM
HL-60(TB) leukemia
  TGI: 1.03 µM
SK-MEL-28 melanoma
  TGI: 26.6 µM
786-0 renal
  TGI: > 100 µM
CCRF-CEM leukemia
  TGI: 19.2 µM
HCT-15 colon
  TGI: 48.4 µM
M19-MEL melanoma
  TGI: 40.2 µM
NCI-H522 lung
  TGI: 25.2 µM
RXF-631 renal
  TGI: 6.59 µM
SNB-75 CNS
  TGI: 11.2 µM
CAKI-1 renal
  TGI: > 100 µM
MOLT-4 leukemia
  TGI: 9.3 µM
OVCAR-8 ovarian
  TGI: 6.23 µM
EKVX NSCLC
  TGI: 39.5 µM
HOP-62 NSCLC
  TGI: 98.2 µM
SK-OV-3 ovarian
  TGI: > 100 µM
DMS 273 small cell lung
  TGI: > 41.2 µM
RPMI-8226 leukemia
  TGI: 22.5 µM
KM12 colon
  TGI: > 100 µM
HCT-116 colon
  TGI: > 40.6 µM
SW-620 colon
  TGI: > 100 µM
OVCAR-5 ovarian
  TGI: 44 µM
SNB-19 CNS
  TGI: > 100 µM
KM20L2 colon
  TGI: > 100 µM
HOP-92 NSCLC
  TGI: 7.59 µM
A549 NSCLC
  TGI: > 100 µM
DLD-1 colon
  TGI: > 25.3 µM
NCI-H460 lung
  TGI: > 100 µM
MALME-3M melanoma
  TGI: 54.7 µM
HCC-2998 colon
  TGI: 24.7 µM
HOP-18 NSCLC
  TGI: 65.6 µM
RXF 393 renal
  TGI: 10.3 µM
SF-295 CNS
  TGI: > 90.2 µM
SR leukemia
  TGI: 14.3 µM
OVCAR-3 ovarian
  TGI: > 50.8 µM
OVCAR-4 ovarian
  TGI: 26.3 µM
UO-31 renal
  TGI: 26.8 µM
A498 renal
  TGI: > 71.2 µM
TK-10 renal
  TGI: > 100 µM
K-562 leukemia
  TGI: > 100 µM
SF-268 CNS
  TGI: 55.4 µM
NCI-H23 lung
  TGI: 25 µM
HT29 colon
  TGI: > 100 µM
SK-MEL-2 melanoma
  TGI: 41.4 µM
SK-MEL-5 melanoma
  TGI: 45.4 µM
U251 CNS
  TGI: > 54.6 µM
DMS 114 small cell lung
  TGI: 17.8 µM
M14 melanoma
  TGI: 30.1 µM
IGROV1 ovarian
  TGI: > 100 µM
UACC-62 melanoma
  TGI: 37.5 µM
UACC-257 melanoma
  TGI: > 77.9 µM
LXFL 529 NSCLC
  TGI: > 100 µM
COLO 205 colon
  TGI: 28.1 µM
NCI-H226 lung
  TGI: 59.3 µM
